This note sets out measurements from patent US20190202836A1, “SELECTIVE DUAL INHIBITORS OF PI3 DELTA AND GAMMA PROTEIN KINASES” (Rhizen Pharmaceuticals SA, priority 2014, published 2019).

The structures appear in SMILES notation.

One series has as its target T1, PI3K delta (Homo sapiens, UniProt O00329).
T1 construct: endogenous in cells; host or cells: isolated human B-cells
The series can be described thus: Assay 4A1: Anti-IgM induced B-cell proliferation. It is filed as cell-based. To be noted: isolated human B-cells, 72 hours; read-out: Cellular IC50 PI3K delta (anti-IgM induced human B-cell proliferation). How it is done: The objective of this study was to assess the inhibitory potential of Compound A1 on anti-IgM induced human B-cell proliferation.
Isolated B-cells were re-suspended to 1.0×10^6 cells per ml. 100 μl of cell suspension was added to each well of a 96-well plate. Triplicates were maintained.
50 μl of drug dilution was added and mixed well. A DMSO blank and inducer blank were maintained.
The treated plate was incubated for 30 minutes at 37° C., 5% CO2 and then 50 μl of 4× inducer was added and mixed by pipetting.
The plate was incubated at 37° C., 5% CO2 for 72 hours.
Media was aspirated and 150 μl of DMSO was added to dissolve the formazan crystals.
Absorbance was read at A560 and A640 nm.

In the next series the test system is IL-4. The series can be described thus: Assay 6A: Cytokine assay in human PBMC, PHA induced IL-4. In kind it is cell-based. Particulars: PHA 20 μg/ml, 48 hours, 2-3 independent experiments, read-out: EC50, antigen-induced IL-4. As to the method:
(§1) The objective of this study was to assess the inhibitory potential of Compound A1 on antigen-induced cytokine release in human PBMC
(§2) • Heparinized human whole blood was diluted 1:1 with PBS, over laid on leukocyte separation medium and centrifuged at 400 g for 40 minutes. • Buffy layer was removed and washed with PBS • 0.15*10^6 of PBMCs were plated in 100 μl per well in RPMI media and incubated for 2 h. • 50 μl of 3× of the compound dilution in media was added and incubated for 15 min. • TNFα—induced with 50 μl of LPS in RPMI such that final concentration was 1 μg/ml. Supernatant was collected at 6 hours. • IL-2-induced with 50 μl of PHA in RPMI such that final concentration was 20 μg/ml. Supernatant was collected at 24 hours. • IL-4-induced with 50 μl of PHA in RPMI such that final concentration was 20 μg/ml.
(§3) EC50 values were calculated from 2-3 independent experiments.

For a further series, the system named is IL-2. As to the kind of experiment: Assay 6A: Cytokine assay in human PBMC, PHA induced IL-2. It is filed as cell-based. To be noted: PHA 20 μg/ml, 24 hours, 2-3 independent experiments, read-out: EC50, antigen-induced IL-2. As to the method:
as §1, §2, §3

The nature of series [1]: Metabolic stability in monkey liver microsomes. In kind it is in vitro ADME. How it is done: Metabolic stability studies were conducted on Compounds A, A1, and A2 as well as Example 128 of WO 2012/151525 using mouse, rat, dog, monkey, and human liver microsomes. The protocol for the studies with mouse, rat, and human liver microsomes (all from BD Gentest, USA) is provided below. 0.4 mg protein was preincubated with 2 mM NADPH (cofactor) in phosphate buffer (pH-7.4) for 15 minutes at 37° C. and then added with 1 μM test item and incubated further for 60 minutes in triplicate. The reaction mixture was terminated with methanol containing an internal standard and centrifuged further to analyze the test item remaining in the supernatant by LC-MS/MS. The percent parent compound remaining was calculated in comparison with similar samples terminated at 0 minutes.
A general note: Liver microsomes are a subcellular fraction often used to study metabolism.

For series [2], the system named is Female Wistar rats. The series can be described thus: Assay 11: Collagen induced arthritis (CIA) in Wistar rats. To be noted: rat CIA, dosed therapeutically, 10 mg/kg/QD. In kind it is in vivo.
The next series has as its target T2, PI3K gamma (Mus musculus, UniProt Q9JHG7).
T2 construct: endogenous in cells; host or cells: RAW 264.7 macrophages
As to the kind of experiment: Assay 4A3: c5a induced AktS473 phosphorylation in RAW 264.7 macrophages. It is filed as cell-based. To be noted: c5a 50 ng/ml, read-out: Cellular IC50 PI3K gamma (c5a induced pAKT in RAW macrophages). As to the method: The objective of this study was to determine the effect of Compound A1 on PI3Kγ kinase mediated c5a induced AktS473 phosphorylation in RAW 264.7 macrophages.
RAW 264.7 cells were treated with desired concentrations of the test compound for 15 minutes. 1 ml of 2× c5a was added such that the final concentration was 50 ng/ml and incubated for 15 minutes.
Media was discarded and washed with 1 ml of ice-cold 1× PBS.
250 μl of cell lysis buffer was added and incubated on ice for 30 minutes.
Samples were centrifuged and supernatant was stored at −80° C. until analysis
Samples were analyzed by Western Blotting using pAKT (S473) as the primary and anti-rabbit IgG-HRP as a secondary antibody.
Intensity of the bands was determined using ImageJ 1.42q (NIH, USA) and normalized to Actin (loading control). Data was plotted using GraphPad Prism (Version 5.02).

The test system of series [3] is Female Wistar rats. As to the kind of experiment: Assay 8: Lipopolysaccharide-induced rat air pouch model of inflammation. It is filed as in vivo. Particulars: Neutrophil, oral, 1, 3 and 10 mg/kg, pouch fluid 6 h after LPS, read-out: ED50, reduction of neutrophil migration into the rat air pouch. As to the method:
Female Wistar rats (175-200 g) were acclimatized for seven days prior to the start of the experiment. Animals were randomly distributed to various groups based on their body weights. Animals were anaesthetised with ether and subcutaneous air pouches were made by injecting 20 ml of sterile air under the skin in the intra-scapular area (day 0) and maintained with a second 10 ml injection of sterile-filtered air on day 4. On day 6, oral treatment was commenced 1 hour prior to induction of inflammation by s.c. injection of LPS solution on day 6. A volume of 5 ml of LPS solution dissolved in sterile saline (100 μg/kg) was injected into each pouch. Samples of pouch fluid were taken at 6 h after administration of LPS by flushing the pouch with 5 ml of sterile saline and withdrawing 4 ml of fluid. The number of leukocytes present in pouch fluid was determined microscopically using a haemocytometer. Differential cell content was determined by microscopic examination of fluid smears stained with Diff-Quik.

T2 sequence (Q9JHG7 whole entry): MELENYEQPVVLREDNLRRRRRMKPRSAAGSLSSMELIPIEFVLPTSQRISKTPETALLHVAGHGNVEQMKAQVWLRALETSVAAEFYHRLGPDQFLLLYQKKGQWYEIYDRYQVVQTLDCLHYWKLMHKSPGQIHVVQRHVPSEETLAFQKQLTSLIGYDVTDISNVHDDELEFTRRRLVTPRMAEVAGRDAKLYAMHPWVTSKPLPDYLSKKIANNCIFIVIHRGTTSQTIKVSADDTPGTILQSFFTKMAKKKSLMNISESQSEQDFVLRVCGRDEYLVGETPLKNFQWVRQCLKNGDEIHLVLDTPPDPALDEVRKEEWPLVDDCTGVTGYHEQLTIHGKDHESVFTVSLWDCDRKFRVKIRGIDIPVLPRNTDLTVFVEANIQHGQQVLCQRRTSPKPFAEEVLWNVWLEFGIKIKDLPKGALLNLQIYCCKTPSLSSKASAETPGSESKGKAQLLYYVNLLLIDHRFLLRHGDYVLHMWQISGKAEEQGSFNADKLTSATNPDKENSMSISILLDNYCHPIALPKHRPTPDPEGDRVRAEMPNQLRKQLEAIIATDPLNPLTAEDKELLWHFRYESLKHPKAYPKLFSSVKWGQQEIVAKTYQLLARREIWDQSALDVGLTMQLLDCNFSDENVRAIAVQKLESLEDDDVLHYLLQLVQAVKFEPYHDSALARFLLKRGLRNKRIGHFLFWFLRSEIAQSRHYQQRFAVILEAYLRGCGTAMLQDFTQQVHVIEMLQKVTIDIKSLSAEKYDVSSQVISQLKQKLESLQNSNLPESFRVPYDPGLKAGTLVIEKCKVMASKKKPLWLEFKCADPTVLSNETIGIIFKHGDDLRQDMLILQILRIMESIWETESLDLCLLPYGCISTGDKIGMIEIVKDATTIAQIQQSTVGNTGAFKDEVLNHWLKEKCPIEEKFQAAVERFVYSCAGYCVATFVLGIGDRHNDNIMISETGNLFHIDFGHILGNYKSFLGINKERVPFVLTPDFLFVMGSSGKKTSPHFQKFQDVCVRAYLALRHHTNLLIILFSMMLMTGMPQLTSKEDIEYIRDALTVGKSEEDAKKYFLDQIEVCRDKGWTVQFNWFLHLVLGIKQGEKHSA
T1 sequence (O00329 whole entry): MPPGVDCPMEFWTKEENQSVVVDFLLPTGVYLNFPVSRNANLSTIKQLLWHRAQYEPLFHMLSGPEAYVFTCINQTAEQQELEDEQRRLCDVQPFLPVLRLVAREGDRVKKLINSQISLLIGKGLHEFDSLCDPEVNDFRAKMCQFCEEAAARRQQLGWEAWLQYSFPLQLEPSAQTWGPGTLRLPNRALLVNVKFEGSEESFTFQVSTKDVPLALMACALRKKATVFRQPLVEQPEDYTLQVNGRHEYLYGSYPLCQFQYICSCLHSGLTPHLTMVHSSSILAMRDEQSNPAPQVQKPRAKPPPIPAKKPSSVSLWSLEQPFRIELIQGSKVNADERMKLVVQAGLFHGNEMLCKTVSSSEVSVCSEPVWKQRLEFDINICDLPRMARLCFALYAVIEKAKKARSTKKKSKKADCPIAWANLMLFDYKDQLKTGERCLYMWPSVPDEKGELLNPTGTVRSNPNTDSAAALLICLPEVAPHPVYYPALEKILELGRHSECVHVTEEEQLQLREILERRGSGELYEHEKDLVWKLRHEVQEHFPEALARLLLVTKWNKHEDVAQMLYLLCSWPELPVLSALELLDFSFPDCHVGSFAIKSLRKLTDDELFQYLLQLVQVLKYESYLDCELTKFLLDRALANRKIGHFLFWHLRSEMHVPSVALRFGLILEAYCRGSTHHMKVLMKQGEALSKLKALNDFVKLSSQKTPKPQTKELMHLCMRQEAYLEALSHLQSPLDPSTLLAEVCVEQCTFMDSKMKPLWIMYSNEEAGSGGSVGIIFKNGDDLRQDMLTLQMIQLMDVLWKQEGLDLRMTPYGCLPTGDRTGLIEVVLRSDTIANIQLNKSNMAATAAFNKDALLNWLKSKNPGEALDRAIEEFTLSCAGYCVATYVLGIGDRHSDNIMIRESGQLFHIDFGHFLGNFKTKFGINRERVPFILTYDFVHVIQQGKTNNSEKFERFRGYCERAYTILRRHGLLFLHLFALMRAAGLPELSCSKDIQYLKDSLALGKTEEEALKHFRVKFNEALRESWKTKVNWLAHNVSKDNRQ
T1 sequence (P27986 whole entry partner): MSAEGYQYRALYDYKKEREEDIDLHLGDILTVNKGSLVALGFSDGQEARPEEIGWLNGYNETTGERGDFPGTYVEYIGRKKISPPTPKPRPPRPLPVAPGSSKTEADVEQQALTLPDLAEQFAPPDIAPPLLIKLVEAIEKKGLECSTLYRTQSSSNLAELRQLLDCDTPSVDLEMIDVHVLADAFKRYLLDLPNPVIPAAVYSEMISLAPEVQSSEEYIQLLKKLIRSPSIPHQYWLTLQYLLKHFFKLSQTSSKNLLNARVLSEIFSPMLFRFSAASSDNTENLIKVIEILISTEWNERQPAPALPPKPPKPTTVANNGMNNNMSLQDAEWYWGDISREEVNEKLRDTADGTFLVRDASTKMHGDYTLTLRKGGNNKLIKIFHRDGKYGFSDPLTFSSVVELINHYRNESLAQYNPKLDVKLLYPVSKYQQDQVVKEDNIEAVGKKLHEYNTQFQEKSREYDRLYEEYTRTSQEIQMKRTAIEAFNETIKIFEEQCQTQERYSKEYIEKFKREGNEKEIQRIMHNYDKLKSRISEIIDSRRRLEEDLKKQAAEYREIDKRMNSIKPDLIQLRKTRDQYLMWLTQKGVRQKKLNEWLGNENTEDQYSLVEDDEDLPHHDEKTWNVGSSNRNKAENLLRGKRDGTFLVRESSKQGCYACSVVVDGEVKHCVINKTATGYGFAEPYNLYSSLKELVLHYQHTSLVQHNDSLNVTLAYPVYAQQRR

In general, EC50 refers to the concentration giving half of the maximal effect. On to `COc1ccc(-c2nn([C@@H](C)c3oc4cccc(F)c4c(=O)c3-c3cccc(F)c3)c3ncnc(N)c23)cc1NS(C)(=O)=O` [Compound A1, (S)—N-(5-(4-amino-1-(1-(5-fluoro-3-(3-fluorophenyl)-4-oxo-4H-chromen-2-yl)ethyl)-1H-pyrazolo[3,4-d]pyrimidin-3-yl)-2-methoxyphenyl)methanesulfonamide], for which the IC50 at PI3K delta was determined as 11 nM. The EC50 with IL-4 amounted to 3.5 nM. In addition, the EC50 in the series on IL-2 worked out at 9.5 nM. For the same compound, in series [1], the “Metabolic stability in liver microsomes (percent parent compound remaining), Monkey” value was 78.8%. In addition, in the series on Female Wistar rats [2], the “inhibition of cartilage (histopathology of all the hind and fore paws)” value turned out to be 46.51%; the “inhibition of inflammation (histopathology of all the hind and fore paws)” value was found to be 58.3%; the “inhibition of pannus (histopathology of all the hind and fore paws)” value is 49.18%; the reducing ankle diameter result is on record as “significant efficacy”. Also, in the series with Female Wistar rats [2], the “reducing the average paw volumes of both the hind paws” value is listed as “significant efficacy”. In the series on Female Wistar rats [2] (prophylactic and therapeutic paws), the “reduction of the clinical score” value was “significant efficacy”. For the same compound, at PI3K gamma, the IC50 amounted to 51.7 nM. Moreover, the ED50 in the series on Female Wistar rats [3] is 2.65 mg/kg.
